Data reported in patent publication US5032514A, “Metabolic pathway engineering to increase production of ascorbic acid intermediates” (Genentech, Inc., priority 1988, dated 1991).

Tests used:
[1] = tested on: 2-ketoaldonate reductase [2KR(B)]; test: induction of 2-keto reductase activity by carbohydrates in LB media; type: cell-based, E. herbicola 21998tkrAΔ3; settings: compound as inducer in LB media
Excerpt: The fact that idonate was still produced in the tkrA^- mutant led to the discovery of a second 2-ketoaldonate reductase [2KR(B)], encoded by an inducible tkrB gene. This protein can be purified from the tkrAΔ3 strain and the gene has been cloned (see below). Evidence that 2KR(A) and 2KR(B) are in fact different enzymes is based on observed differences in protein sequence, molecular weight on SDS gels, subunit composition, migration on native gels, kinetic parameters, and gene sequence. 2KR(B) activity is inducible in LB media by a variety of carbohydrates which are listed on Table 1. […] 2-keto reductase activity is found widely elsewhere in nature. We have also identified 2-keto aldonate reductase activity in both E. coli MM294 and Corynebacterium sp. ATCC 31090, neither of which is known to be ketogenic nor produce 2-KLG as a natural product.

[2] = tested on: 5-KDG reductase; test: induction of 5-keto reductase activity by carbohydrates in LB media; type: cell-based, E. herbicola 21998tkrAΔ3; settings: compound as inducer in LB media
[3] = tested on: idonate dehydrogenase; test: membrane bound idonate dehydrogenase assay (crude membrane fraction)
[4] = target: gluconate dehydrogenase; test: membrane bound gluconate dehydrogenase assay (crude membrane fraction); settings: read-out: Ki, competitive inhibition of gluconate dehydrogenase
[5] = tested on: E. herbicola; test: growth on sole carbon source in minimal media; type: cell-based
Protocol: Although a large number of potential metabolic routes from glucose exist, IA is likely produced from either 2-KLG or 5-keto-D-gluconate (5-KDG) catalyzed by a stereospecific pyridine nucleotide-linked reductase. Evidence for both the 5-KDG route in Fusarium species (Takagi, Agric. Biol. Chem. 26:719 [1962]) and the 2-KLG route in a variety of microorganisms has been observed (Makeover et al., supra). Shake flask incubations of whole cells of E. herbicola at 11 OD550 containing 12 g/1 of either 2-KLG or 5-KDG were carried out. Approximately 4 g/1 of IA was produced in flasks containing 2-KLG in 40 hours. The total IA and 2-KLG concentration remained constant throughout the bioconversion. […] Furthermore, E. herbicola was grown using either 5-KDG, G, GA, 2-KDG, or 2,5-DKG as the sole carbon source in minimal media. […] Thus the IA produced in E. herbicola into which an expression vector encoding 2,5-DKG reductase has been transferred is derived from 2-KLG catabolism.

[6] = tested on: tac promoters; test: modulation of expression level by sequential increases in IPTG; type: cell-based, Erwinia herbicola; settings: for 2-KLG + IA/DKG: fractional weight basis relative to 2,5-DKG
Protocol: Additional experiments were carried out modulating the expression level by sequential increases in IPTG to induce the tac promoters.
In the table below, IPTG is the concentration of isopropylthio-β-galactoside added to the culture medium. Enzyme activity is the sum of the activities of 2,5-DKG reductase and 2-keto aldonate reductase per mg of protein (measured using the Bradford assay, supra). 2-KLG is measured on gram per gram dry cell weight per hour. Finally, the 2-KLG and idonate is measured on a fractional weight basis relative to 2,5-DKG.

| Compound | 2 KR Spec. Act. [1] | 5 KR Spec. Act. [2] | other results |
| --- | --- | --- | --- |
| O=C(O)C(=O)[C@@H](O)[C@H](O)C(=O)CO [2,5-DKG, 2,5-diketo-D-gluconic acid] | 0.122 µmol/min/mg | 0.103 µmol/min/mg | – |
| O=C(O)C(=O)[C@@H](O)[C@H](O)[C@H](O)CO [2-KDG, 2-keto-D-gluconate] | 0.045 µmol/min/mg | 0.143 µmol/min/mg | inhibition of idonate dehydrogenase ([3]; crude membrane fraction): but not idonate dehydrogenase; Ki [4]: > 10 mM |
| O=C(O)C(=O)[C@@H](O)[C@H](O)[C@@H](O)CO [2-KLG, 2-keto-L-gulonic acid] | 0.014 µmol/min/mg | 0.061 µmol/min/mg | growth using compound as the sole carbon source [5]: did not grow; Ki ([3]; read-out: Ki, competitive inhibition of idonate dehydrogenase, crude membrane fraction): 13 mM |
| O=C(CO)[C@@H](O)[C@H](O)[C@@H](O)C(=O)O [5-KDG, 5-keto-D-gluconate] | 0.119 µmol/min/mg | 0.105 µmol/min/mg | – |
| O=C(CO)[C@@H](O)[C@H](O)[C@H](O)CO [D-fructose] | 0.028 µmol/min/mg | 0.032 µmol/min/mg | – |
| O=C[C@H](O)[C@@H](O)[C@H](O)[C@H](O)CO [D-glucose] | 0.167 µmol/min/mg | 0.27 µmol/min/mg | – |
| OCC(O)CO [D-glycerol] | 0.024 µmol/min/mg | 0.035 µmol/min/mg | – |
| OC[C@@H](O)[C@@H](O)[C@H](O)[C@H](O)CO [D-mannitol] | 0.027 µmol/min/mg | 0.032 µmol/min/mg | – |
| O=C(O)[C@H](O)[C@@H](O)[C@H](O)[C@H](O)CO [GA, D-gluconate] | 0.020 µmol/min/mg | 0.144 µmol/min/mg | – |
| O=C(O)[C@H](O)[C@@H](O)[C@H](O)[C@@H](O)CO [IA, L-idonic acid] | – | – | growth using compound as the sole carbon source [5]: did not grow; Km ([3]; read-out: apparent Km, idonate dehydrogenase activity, pH 6.0, 25° C.): 20 mM |
| CC(C)S[C@@H]1O[C@H](CO)[C@H](O)[C@H](O)[C@H]1O [IPTG, isopropylthio-β-galactoside] | – | – | 2-KLG Prod. Rate ([6]; [IPTG] 0.001 mM): 0.000 g/g-DCW-Hr; Enzyme Activity (sum of 2,5-DKG reductase and 2-keto aldonate reductase) ([6]; [IPTG] 0.001 mM): 0.029 umole/mg-P-min; 2-KLG + IA/DKG ([6]; [IPTG] 0.001 mM): 0.000; 2-KLG Prod. Rate ([6]; [IPTG] 0.005 mM): 0.004 g/g-DCW-Hr; Enzyme Activity (sum of 2,5-DKG reductase and 2-keto aldonate reductase) ([6]; [IPTG] 0.005 mM): 0.051 umole/mg-P-min; 2-KLG + IA/DKG ([6]; [IPTG] 0.005 mM): 0.025; 2-KLG Prod. Rate ([6]; [IPTG] 0.050 mM): 0.062 g/g-DCW-Hr; Enzyme Activity (sum of 2,5-DKG reductase and 2-keto aldonate reductase) ([6]; [IPTG] 0.050 mM): 0.100 umole/mg-P-min; 2-KLG + IA/DKG ([6]; [IPTG] 0.050 mM): 0.350; 2-KLG Prod. Rate ([6]; [IPTG] 0.500 mM): 0.126 g/g-DCW-Hr; Enzyme Activity (sum of 2,5-DKG reductase and 2-keto aldonate reductase) ([6]; [IPTG] 0.500 mM): 0.140 umole/mg-P-min; 2-KLG + IA/DKG ([6]; [IPTG] 0.500 mM): 0.530 |
